Read-outs that look alike come from different tables or passages of the source.
Test system: NLRepRlucP373S viruses containing Gag SDMs or gag/pr genes from clinical isolates
Test: Multiple-cycle replication assay, NLRepRluc reporter viruses in MT-2 cells, luciferase endpoint
Type: cell-based, HIV-1
Description: Multiple-cycle assays using recombinant viruses or clinical isolates were used to assess MI antiviral activity as described previously ([10]). pNLRepRlucP373S (the P373S change is in the Gag gene and converts an outlier polymorphism in the NL4-3 gene to the prevalent amino acid in the population) plasmids containing SDMs in Gag or gag/pr regions from clinical isolates were transfected into HEK 293T cells, and the supernatant containing recombinant virus was harvested after 4 to 5 days. Virus was used to infect MT-2 cells in the presence of a 3-fold serially diluted compound at a final dimethyl sulfoxide (DMSO) concentration of 1%. The inocula of the reporter viruses were determined based on the luciferase activity detected on day 4 postinfection. The MOI (ratio of infectious virions to target cells) of reporter-free laboratory strains and clinical isolates was 0.005, as derived from a tissue culture infectious dose study. Clinical isolates or reporter-free viruses were examined in the reporter CEM-NKR-CCR5-Luc cells or PBMCs at MOIs ranging from 0.005 to 0.01. Each infection started with a drug-free preincubation of the cell-virus mixtures, performed at 37°C and 5% CO2 for either 1 h at 2 times the final cell density (reporter viruses) or 1 h (reporter-free laboratory strains) or 3 h (clinical isolates) using cell pellets in 0.5 mL of medium. After preincubation, cell-virus mixtures were added to compound-containing 96-well plates for a final cell density of either 10,000 (MT-2 cells for reporter viruses), 20,000 (MT-2 and PM1 cells for reporter-free laboratory strains), 200,000 (PBMCs for clinical isolates), or 500,000 (CEM-NKR-CCR5-Luc for reporter-free laboratory strains) cells per well. The CEM-NKR-CCR5-Luc cell assay was performed in the presence of Polybrene (10 μg/mL). Virus growth was determined on days 4 to 5 postinfection for reporter variants or days 5 to 11 for the other viruses. The reporter viruses were detected by a luciferase assay according to manufacturer protocols (Brite-Glo luciferase kit [Promega] for CEM-NKR-CCR5-Luc cells and Dual-Luciferase Reporter 1000 assay system [Promega] for the other cells), and luminescence was detected on a Wallac Trilux. The growth of clinical isolates in PBMCs was quantitated by reverse transcriptase activity in a 96-well scintillation proximity assay (SPA). Twenty microliters of culture supernatants was mixed with 40 μL of reaction cocktail (62.5 mM Tris-HCl [pH 7.8], 100 mM KCl, 0.0625% NP-40, 2.5 mM dithiothreitol [DTT], 6.25 mM MgCl2, 1 mM EGTA, 6.25 μg/mL of poly rA, 2.5 μg/mL of streptavidin SPA beads prebound with biotinylated-dT12-18, and 1 μCi of [^3H]TTP). Mixtures were incubated at 37°C for ∼3 h and quenched with 100 μl of 0.25 M EDTA per well. Luminescence was detected on a Wallac Trilux programmed for tritium counting with SPA beads in opaque plates. The growth of the reporter-free laboratory M-tropic strains and clinical isolates was monitored by a p24 enzyme-linked immunosorbent assay (ELISA; PerkinElmer Life Sciences, Waltham, MA) performed on culture supernatants. […] A 1:1,000 dilution of cell supernatant in PBS was generally observed to fall in the dynamic range of the endpoint signal.
Maximal percent inhibition values were calculated as MPI = 100 – (mean signals at the 2 highest concentrations of compound/mean signal of 2 no-drug control wells) × 100.

For `C=C(C)[C@@H]1CC[C@]2(NCCN3CCS(=O)(=O)CC3)CC[C@]3(C)[C@H](CC[C@@H]4[C@@]5(C)CC=C(c6ccc(C(=O)O)cc6)C(C)(C)[C@@H]5CC[C@]43C)[C@@H]12` [GSK’795, reference compound], the EC90 (Human immunodeficiency virus 1, MT2, read-out: PBA EC90, subtype B gag/pr 1000156 (V362I)) was 600 nM, the EC90 (Human immunodeficiency virus 1, MT2, read-out: PBA EC90, subtype B gag/pr 1900120 (V370M)) was 6000 nM and the EC90 (Human immunodeficiency virus 1, MT2, read-out: PBA EC90, subtype B gag/pr 1900140 (V362I)) was 1930 nM. The EC90 (Human immunodeficiency virus 1, MT2, read-out: PBA EC90, subtype C gag/pr 93MW690) was 1370 nM, the EC90 (Human immunodeficiency virus 1, MT2, read-out: PBA EC90, subtype C gag/pr 97ZA003) was 2400 nM and the EC90 (Human immunodeficiency virus 1, MT2, read-out: PBA EC90, subtype C gag/pr 98CN009) was 1870 nM. The EC90 (Human immunodeficiency virus 1, MT2, read-out: PBA EC90, subtype C gag/pr 98IN026) was 70 nM, the EC90 (Human immunodeficiency virus 1, MT2, read-out: PBA EC90, subtype C gag/pr 10215-6) was 12000 nM and the EC90 (Human immunodeficiency virus 1, MT2, read-out: PBA EC90, subtype C gag/pr 11657-3) was 400 nM. For the same compound, the EC90 (Human immunodeficiency virus 1, MT2, read-out: PBA EC90, subtype C gag/pr 20635-4) was 1700 nM, the EC90 (Human immunodeficiency virus 1, MT2, read-out: PBA EC90, subtype C gag/pr 20706-3) was 370 nM and the EC90 (Human immunodeficiency virus 1, MT2, read-out: PBA EC90, subtype C gag/pr 1300495) was 2270 nM. The EC90 (Human immunodeficiency virus 1, MT2, read-out: PBA EC90, subtype C gag/pr 1700141) was 370 nM, the EC90 (Human immunodeficiency virus 1, MT2, read-out: PBA EC90, subtype C gag/pr 1900543) was 280 nM and the EC90 (Human immunodeficiency virus 1, MT2, read-out: PBA EC90: Mean, minilibrary of HIV-1 polymorphisms, Fig. 1B, GSK’795 mean without 3 viruses lacking measurable EC90) was 44800 nM. The EC50 (Human immunodeficiency virus 1, MT2, subtype B gag/pr 4NRR (Wild-type)) was 1 nM, the EC50 (Human immunodeficiency virus 1, MT2, subtype B gag/pr 28-MDR (Wild-type)) was 6 nM and the EC50 (Human immunodeficiency virus 1, MT2, subtype B gag/pr 92BR014 (V370M)) was 4 nM. The EC50 (Human immunodeficiency virus 1, MT2, subtype B gag/pr 92BR018 (V, QAΔ)) was 3 nM, the EC50 (Human immunodeficiency virus 1, MT2, subtype B gag/pr 92TH014 (V362I)) was 5 nM and the EC50 (Human immunodeficiency virus 1, MT2, subtype B gag/pr 92TH026 (V362I)) was 10 nM. The EC50 (Human immunodeficiency virus 1, MT2, subtype B gag/pr 92US072 (V362I)) was 3 nM, the EC50 (Human immunodeficiency virus 1, MT2, subtype B gag/pr 92US729 (Wild-type)) was 1 nM and the EC50 (Human immunodeficiency virus 1, MT2, subtype B gag/pr 93BR008 (V362I)) was 4 nM. It also gave an EC50 (Human immunodeficiency virus 1, MT2, subtype B gag/pr 93BR009 (V370M)) of 2 nM, an EC50 (Human immunodeficiency virus 1, MT2, subtype B gag/pr 93BR017 (V, QAΔ)) of 16 nM and an EC50 (Human immunodeficiency virus 1, MT2, subtype B gag/pr 93BR022 (V, QAΔ)) of 10 nM. The EC50 (Human immunodeficiency virus 1, MT2, subtype B gag/pr 93BR024 (V362I)) was 54 nM, the EC50 (Human immunodeficiency virus 1, MT2, subtype B gag/pr 93TH0647 (V362I)) was 3 nM and the EC50 (Human immunodeficiency virus 1, MT2, subtype B gag/pr 93US141 (V362I)) was 9 nM. It also gave an EC50 (Human immunodeficiency virus 1, MT2, subtype B gag/pr 93US155 (V370T)) of 5 nM, an EC50 (Human immunodeficiency virus 1, MT2, subtype B gag/pr 411-1-C (Wild-type)) of 1 nM and an EC50 (Human immunodeficiency virus 1, MT2, subtype B gag/pr 220162 (Wild-type)) of 5 nM. For the same compound, the EC50 (Human immunodeficiency virus 1, MT2, subtype B gag/pr 400024 (V370M)) was 19 nM, the EC50 (Human immunodeficiency virus 1, MT2, subtype B gag/pr 400051 (V370A)) was 2 nM and the EC50 (Human immunodeficiency virus 1, MT2, subtype B gag/pr 1000156 (V362I)) was 9 nM. For the same compound, the EC50 (Human immunodeficiency virus 1, MT2, subtype B gag/pr 1900120 (V370M)) was 8 nM, the EC50 (Human immunodeficiency virus 1, MT2, subtype B gag/pr 1900140 (V362I)) was 3 nM and the EC50 (Human immunodeficiency virus 1, MT2, subtype C gag/pr 93MW690) was 10 nM. The EC50 (Human immunodeficiency virus 1, MT2, subtype C gag/pr 97ZA003) was 6 nM, the EC50 (Human immunodeficiency virus 1, MT2, subtype C gag/pr 98CN009) was 11 nM and the EC50 (Human immunodeficiency virus 1, MT2, subtype C gag/pr 98IN026) was 3 nM. It also gave an EC50 (Human immunodeficiency virus 1, MT2, subtype C gag/pr 10215-6) of 7 nM, an EC50 (Human immunodeficiency virus 1, MT2, subtype C gag/pr 11657-3) of 6 nM and an EC50 (Human immunodeficiency virus 1, MT2, subtype C gag/pr 20706-3) of 4 nM. The EC50 (Human immunodeficiency virus 1, MT2, subtype C gag/pr 1300495) was 22 nM, the EC50 (Human immunodeficiency virus 1, MT2, subtype C gag/pr 1700141) was 8 nM and the EC50 (Human immunodeficiency virus 1, MT2, subtype C gag/pr 1900543) was 7 nM. The MPI (SDM A326T/V362I/V370A) was 6%, the MPI (SDM A364V) was 16% and the MPI (SDM R361K/V362I/L363M) was 68%. It also gave an MPI (SDM T332S/V362I/prR41G) of 65%, an MPI (SDM V362I/V370A) of 31% and an MPI (SDM V370A) of 84%. For the same compound, the MPI (SDM Wild type) was 94%, the MPI (SDM ΔV370) was 87% and the EC50 (read-out: EC50 (range), Subtype B gag/pr viruses, n=24) was 1 to 1400 nM.

Reference: PMC8765437, “GSK3640254 Is a Novel HIV-1 Maturation Inhibitor with an Optimized Virology Profile” (Antimicrobial Agents and Chemotherapy, 2022)
